Test systems include 786-0; CAKI-1; CCRF-CEM; HCT-116; HOP-92; HT-29; Hs-578T; LXFL 529; MDA-N; Malme-3M; NCI-H522; NCI/ADR-RES; PC-3; RPMI-8226; SNB-19; SR; T47D; U-251; UACC-62; XF498.
Common to all, as to assay: inhibition of tumour cell growth, NCI panel, 48 h

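The compound was tested at five concentrations on cells cultured in 96-well plates, with a 48-hour exposure period. GI50 = concentration required for 50% inhibition of growth.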 The source made the active and inactive calls. No stated cut-off is given here; in the data, active = GI50 up to about 1.1 µM and inactive = higher.

For the compound `CC1=NN(C(=O)c2ccccc2O)C(=O)/C1=C/c1ccc([N+](=O)[O-])cc1`, the GI50 in the assay with 786-0 is 299 nM (active); in the assay with CAKI-1 it was 455 nM (active); in the assay with CCRF-CEM, 407 nM (active); in the assay with HCT-116, 116 nM (active); in the assay with HOP-92 it was 411 nM (active); in the assay with HT-29, 5970 nM (inactive). Moreover, the GI50 was 348 nM (active) in the assay with Hs-578T; 58.6 nM (active) in the assay with LXFL 529; 413 nM (active) with MDA-N; 247 nM (active) in the assay on Malme-3M; 615 nM (active) in the assay with NCI-H522; 664 nM (active) with NCI/ADR-RES. Further, the GI50 in the assay on PC-3 was 1360 nM (inactive); with RPMI-8226, 1880 nM (inactive); with SNB-19, 78.2 nM (active); in the assay on SR it was 473 nM (active); in the assay on T47D, 1890 nM (inactive); in the assay with U-251 it was 99.1 nM (active). For the same compound, the values for the GI50 in the assay on UACC-62 and with XF498 were 60.3 nM (active) and 664 nM (active), respectively.
With `Cc1c(CNc2ccc(C(=O)NC(CC(=O)O)C(=O)O)cc2)ccc2nc(N)nc(N)c12` (centres undefined), the GI50 is < 164 nM (active) in the assay with 786-0; < 10 nM (active) with CCRF-CEM; < 10 nM (active) with HCT-116; 1100 nM (active) with HOP-92; < 10 nM (active) with HT-29; 684000 nM (inactive) with Hs-578T. Also, the GI50 in the assay on LXFL 529 was < 10 nM (active); in the assay with MDA-N, < 10 nM (active); in the assay with Malme-3M, 31000 nM (inactive); in the assay with NCI-H522, < 18 nM (active); with NCI/ADR-RES, < 10 nM (active); in the assay with PC-3, 13400 nM (inactive). Also, the GI50 in the assay on RPMI-8226 was < 18.2 nM (active); in the assay on SR, < 29.6 nM (active); in the assay with T47D it was > 100000 nM (inactive); in the assay on U-251, 54.6 nM (active); with UACC-62, < 10 nM (active); with XF498 it was 68100 nM (inactive).
In the case of `c1ccc([P+](CCC[P+](c2ccccc2)(c2ccccc2)c2ccccc2)(c2ccccc2)c2ccccc2)cc1`, the GI50 is > 100000 nM (inactive) in the assay on 786-0; > 100000 nM (inactive) in the assay on CAKI-1; 22400 nM (inactive) in the assay with CCRF-CEM; 20100 nM (inactive) with HCT-116; 20100 nM (inactive) with HOP-92; 34400 nM (inactive) in the assay on HT-29. For the same compound, the GI50 in the assay on LXFL 529 was 11300 nM (inactive); in the assay on Malme-3M, 70800 nM (inactive); in the assay on NCI-H522, 19500 nM (inactive); in the assay with RPMI-8226 it was 7380 nM (inactive); in the assay with SNB-19 it was 16300 nM (inactive); in the assay with SR, 45000 nM (inactive). Also, the GI50 in the assay on U-251 was 6650 nM (inactive); in the assay on UACC-62 it was 26100 nM (inactive); with XF498, 23700 nM (inactive).
Regarding `COC1=C2CC(C)CC(OC)C(O)C(C)/C=C(\C)C(OC(N)=O)C(OC)/C=C\C=C(/C)C(=O)NC(=C(/C=N/N3CCCCC3)C1=O)C2=O` (centres undefined), the GI50 is 10200 nM (inactive) in the assay with 786-0; 15700 nM (inactive) with CAKI-1; 2550 nM (inactive) in the assay on CCRF-CEM; 3250 nM (inactive) with HCT-116; 15700 nM (inactive) with HOP-92; 6550 nM (inactive) in the assay with HT-29. For the same compound, the GI50 in the assay on LXFL 529 was 10000 nM (inactive); in the assay with Malme-3M, 15200 nM (inactive); in the assay with NCI-H522 it was 2550 nM (inactive); in the assay on PC-3, 15300 nM (inactive); in the assay with RPMI-8226 it was 5550 nM (inactive); with SNB-19, 16100 nM (inactive). Besides, the GI50 was 2590 nM (inactive) with SR, 6400 nM (inactive) with U-251, 18600 nM (inactive) with UACC-62 and 8950 nM (inactive) with XF498.
In the case of `COc1ccc2nc3cc(Cl)ccc3c(Sc3ccc([N+](=O)[O-])cc3)c2c1`, the GI50 was > 10000 nM (inactive) with 786-0; > 10000 nM (inactive) in the assay with CAKI-1; > 10000 nM (inactive) with CCRF-CEM; > 10000 nM (inactive) in the assay with HCT-116; > 10000 nM (inactive) with HOP-92; > 100000 nM (inactive) with HT-29. Moreover, the GI50 in the assay with LXFL 529 was > 10000 nM (inactive); in the assay with Malme-3M, > 10000 nM (inactive); with NCI-H522, > 10000 nM (inactive); in the assay with RPMI-8226 it was > 100000 nM (inactive); in the assay with SNB-19 it was > 10000 nM (inactive); in the assay on SR it was > 10000 nM (inactive). Moreover, the GI50 in the assay with U-251, in the assay with UACC-62 and in the assay with XF498 was > 10000 nM (inactive) throughout.
Take `CCCCCCCCCCCC1CC(=O)NCCCN(C)CCCCN(C)CCCN1C` (centres undefined) [BUDMUNCHIAMINE A]: the GI50 with 786-0 is 1550 nM (inactive); with CAKI-1, 2080 nM (inactive); in the assay with CCRF-CEM, 156 nM (active); in the assay on HCT-116, 1550 nM (inactive); in the assay with HOP-92 it was 1390 nM (inactive); in the assay on HT-29 it was 1560 nM (inactive). For the same compound, the GI50 with LXFL 529 was 1720 nM (inactive); in the assay on Malme-3M, 1900 nM (inactive); in the assay on NCI-H522, 1810 nM (inactive); with RPMI-8226, 828 nM (active); in the assay with SNB-19, 1700 nM (inactive); in the assay with SR it was 230 nM (active). The GI50 with U-251 was 1660 nM (inactive); in the assay on UACC-62, 1680 nM (inactive); with XF498 it was 1650 nM (inactive).
